Reference: patent US8268961B2, “Antibacterial peptides and analogues thereof” (Universita Degli Studi di Siena, priority 2004, dated 2012)
Positions of bridges follow the written chain, without caps; N, C: chain ends. Chains are numbered I, II in the order given. No end group written: not given here.

Key:
[1] = Stability to plasmatic protease (HPLC); format: in vitro ADME, human
Description: Since the use of peptides as therapeutic agents is severely limited by their in vivo half-life, the stability to human serum protease of the linear peptide L1 and of the MAP peptides M1, M4, M5 and M6 was evaluated. The peptides were incubated at the concentration of 10 mM with plasma and with human serum for 2 and 24 hours; the samples were subsequently analysed in HPLC on column C18 (see materials and methods) to evaluate the presence of linear and MAP peptide not digested by the protease.
The various peptides in MAP form and the linear peptide (L1) were dissolved in H2O at the concentration of 10 mM and incubated with 10 μl of plasma and human serum for 2 and 24 hours at 37° C. To each sample were added 150 μl of methanol to block the proteolytic reaction; each sample was then centrifuged at 13,000 rpm for 2 min and to the supernatant were added 0.75 ml of 0.1% trifluoroacetic acid. The samples were analysed in reverse phase HPLC on a Vydac C18 semi-preparative column using a 30 min gradient of buffer B from 20% to 95% (buffer A: 0.1% trifluoroacetic acid/water; buffer B: 0.1% trifluoroacetic acid/methanol), to evaluate the presence of linear and MAP peptide after the proteolytic treatment.

Cytotoxicity test by MTT = format: cell-based, mouse; conditions: mouse, J774 A.1 murine macrophage cells
Description: (§1) The cytotoxicity of antibacterial MAP peptides was evaluated on different eukaryotic cell lines by a colorimetric assay (MTT). This assay measures the cells' ability to convert a soluble tetrazolium salt into an insoluble precipitate: formazan. The cytotoxicity of M1 was evaluated on murine macrophagic cells (J774 A.1), murine myeloma cells (SPO) and Chinese hamster ovary epithelium cells (CHO K1). As shown FIG. 4, even at high concentrations (1 mg/ml) M1 cytotoxicity on CHO K1 cells and on SPO cells is low (percent survival is 80-90%).
(§2) For cytotoxicity tests, different cell lines were used: murine myeloma cells SPO, hamster ovary epithelium cells CHO K 1, murine macrophage cells J774 A.1 and human keratinocytes HaCaT. The cells were plated in medium in RPMI 1640 (SPO and CHO K 1) and DMEM (J774 A.1 and HaCaT) with antibiotics and bovine foetal serum at 10%, in 96-well plates at the concentration of 6×10^4 (SPO, CHO K1 and J774 A.1) and 3×10^4 (HaCaT). Peptides, previously filtered with a 0.2 μm filter disk (Whatman), were added at various concentrations to the different cell lines and left in incubation over night at 37° C. Cell viability was determined adding the MTT tetrazolium salt at the concentration of 0.5 mg/ml and incubating for 90 min. The cells were solubilised with a solution at pH 4.5 containing SDS 10% and dimethylformamide 45% and read at the dual wavelength of 595/650 nm with a plate reader.

in vitro = format: cell-based
Description: as §1
as §2, with “Peptides, previously filtered with a 0.2 μm filter disk (Whatman), were added at various concentrations to the different cell lines and left in incubation over night at 37° C.” left out

E. coli strain TG1 [2] = assay: Stability of peptide in solution (time course of antibacterial activity); format: physicochemical; conditions: PBS 0.5 mg/ml, 1, 48 and 72 hours
Description: FIG. 6. Stability of M1 peptide in solution. Time course of antibacterial activity of M1 on E. coli strain TG1. MAP M1 peptide was dissolved in PBS at a concentration of 0.5 mg/ml and bactericide activity was measured 1, 48 and 72 hours after re-suspension in PBS.
FIG. 8. Stability of M4, M5 and M6 peptides in solution. Time course of antibacterial activity of M4, M5 and M6 on E. coli strain TG1. M4, M5 and M6 peptides were dissolved in PBS at a concentration of 0.5 mg/ml and bactericide activity was measured 1, 48 and 144 hours after re-suspension in PBS.

E. coli strain TG1 [3] = assay: Test of antibacterial activity (colony growth inhibition) on E. coli strain TG1; format: cell-based
Description: The antimicrobic activity of the peptides in linear form (L1, L4, L5, L6) and in MAP form (M1, M4, M5, M6) was assayed on the TG1 strain of E. coli. The peptides were incubated at various concentrations (2-1-0.5-0.25-0.12 mg/ml) with cells of E. coli (OD600=0.2) for about 1 hour at 37° C. Subsequently, the cells were plated on agar at dilution such to allow counting of individual colonies. The antimicrobic activity of the synthesised peptide L 1 and M1 is shown FIG. 1 and is compared to a non correlated MAP peptide (MNC) used as negative control.
In one example, the tetrabranched MAP peptides with the amino acid sequence: QAKIRVRLSA [SEQ ID NO: 2], KIRVRLSA [SEQ ID NO: 3], QKKIRVRLSA [SEQ ID NO: 4] are used individually in a bacterial colony growth inhibition test. The test is conducted by incubating different concentrations of MAP peptides with E. coli (strain TG1) and plating bacterial cells on agar at a dilution such to allow for individual colonies counting. The following day, the number of colonies grown after treatment with the three MAP peptides is compared.
Antimicrobic tests were conducted incubating for 75 min at 37° C., 25 μL of E. coli at the OD600 of 0.2 with 25 μl of MAP peptide dissolved in PBS at the various concentrations. The different incubations were further diluted 1:1000 in 2×TY medium and 100 μl were plated on solid 2×TY medium. The plates were left overnight at 30° C. and the individual grown colonies were counted and compared with a control, not treated with MAP peptide.

Substance: I: QEKIRVRLSAKKA-OH / II: QEKIRVRLSAK / III: QEKIRVRLSA / IV: QEKIRVRLSA (amide I:11-IV:C, I:12-II:C, II:11-III:C) [M1]
- Resistance to plasmatic protease: Plasma 2 h [1]: +
- viability at 1000 µg/mL (Cytotoxicity test by MTT): ~50%
- viability at 1000 µg/mL (in vitro; CHO K1 cells (Chinese hamster ovary epithelium)): 80 to 90%
- viability at 1000 µg/mL (in vitro; mouse, SPO murine myeloma cells): 80 to 90%
- Stability in solution: antibacterial activity over time after resuspension (E. coli strain TG1 [2]): drop in activity over time
- Concentration down to which TG1 E. coli colony growth is prevented (E. coli strain TG1 [3]; E. coli TG1, MAP form): less effective
- Antibacterial activity on E. coli TG1 colony growth (E. coli strain TG1 [3]; E. coli TG1, colony counting vs control without peptide): inhibited significantly
